The source of these data is patent US5486526A, “Histamine H3 -receptor antagonists and therapeutic uses thereof” (The University of Toledo, priority 1993, dated 1996).

Where two headings read alike, the source gives them in different places. Ends that are not written are not given here.

One experiment deals with T1, histamine H3 receptor (Rattus norvegicus, UniProt Q9QYN8).
T1 construct: from tissue
Put plainly: Inhibition of [^3 H]-N-alpha-methylhistamine binding to rat brain membranes. Conditions: for binding to the histamine H3 -receptor (in words): discussion of Table I. The protocol: A series of compounds were prepared and tested for their histamine H3 receptor antagonist activity. The antagonist activity of the compounds was detected by observing inhibition of (^3 H)-N-(alpha)methylhistamine activity on rat brain membranes.
The various compounds were tested for the ability to bind to the histamine H3 receptor. A binding assay in a rat brain membrane preparation, based on inhibition of binding of [^3 H]-N-alpha-methylhistamine using excess unlabeled alpha-methylhistamine to account for nonspecific binding, was developed.

The target of another experiment is Arg-Vasopressin V1. Conditions: reference compound; cited from earlier work.
The target in a further experiment is EGF. Conditions: reference compound; cited from earlier work.
For the next experiment, the target named is ANF (rat). The following applies: reference compound; cited from earlier work.
The target of another experiment is Substance P. Conditions: reference compound; cited from earlier work.
The target of another experiment is NPY. Conditions: reference compound; cited from earlier work.
For the next experiment, the target named is Adenosine. Conditions: reference compound; cited from earlier work.
The next experiment has as its target Benzodiazephine. The following applies: reference compound; cited from earlier work.
The next experiment deals with Somatostatin. Conditions: reference compound; cited from earlier work.
The target in a further experiment is Substance K. Conditions: reference compound; cited from earlier work.
In a further experiment the target is Potassium. Conditions: reference compound; cited from earlier work.
A further experiment addresses NGF. Conditions: reference compound; cited from earlier work.
A further experiment deals with Neurotensin. The following applies: reference compound; cited from earlier work.
Another experiment concerns the target PCP. The following applies: reference compound; cited from earlier work.
A further experiment has as its target Quisqualate. Conditions: reference compound; cited from earlier work.
The target of the next experiment is Angiotensin. Conditions: reference compound; cited from earlier work.
The target in a further experiment is VIP. Conditions: reference compound; cited from earlier work.
Another experiment addresses Bombesin. The following applies: reference compound; cited from earlier work.
The target of a further experiment is Calcium. Conditions: reference compound; cited from earlier work.
For experiment [1], the target named is Adenylate Cyclase Forskolin. The following applies: reference compound; cited from earlier work.
Another experiment deals with Dopamine 2. The following applies: reference compound; cited from earlier work.
Another experiment deals with Serotonin 2. Conditions: reference compound; cited from earlier work.
A further experiment concerns the target Serotonin 1. Conditions: reference compound; cited from earlier work.
In the next experiment the test system is Male albino CF-1 mice. Put plainly: Behavioral effects in mice: sleep induced by (R)α-methylhistamine. Format: in vivo, mouse. Conditions: i.p. The protocol:
The overall strategy to show central nervous system antagonist activity was to challenge effects of the agonist (R)α-methylhistamine. Therefore, the first objective was to establish a dose response curve for behavioral effects of (R)α-methylhistamine. Male albino CF-1 mice weighing 20-30 g were used. Saline or (R)α-methylhistamine in saline was injected i.p. in a volume ≤0.4 ml. […] Animals were scored for the presence (1) or absence (0) of the behavior and the results were reported as the accumulated score for a 30 minute period (maximum score=9).
To assess the effects of antagonists, they were administered with the (R)α-methylhistamine in saline.

Another experiment concerns the target NMDA. The following applies: reference compound; cited from earlier work.
The target of another experiment is MK-801. The following applies: reference compound; cited from earlier work.
The mark [2] stands for this setting: ^3 HN^α -methylhistamine as radioligand, rat brain membranes, first part of Table I, read-out: IC50.
The mark [3] stands for this setting: ^3 HN^α -methylhistamine as radioligand, rat brain membranes, second part of Table I, read-out: IC50.

T1 sequence (Q9QYN8 whole entry): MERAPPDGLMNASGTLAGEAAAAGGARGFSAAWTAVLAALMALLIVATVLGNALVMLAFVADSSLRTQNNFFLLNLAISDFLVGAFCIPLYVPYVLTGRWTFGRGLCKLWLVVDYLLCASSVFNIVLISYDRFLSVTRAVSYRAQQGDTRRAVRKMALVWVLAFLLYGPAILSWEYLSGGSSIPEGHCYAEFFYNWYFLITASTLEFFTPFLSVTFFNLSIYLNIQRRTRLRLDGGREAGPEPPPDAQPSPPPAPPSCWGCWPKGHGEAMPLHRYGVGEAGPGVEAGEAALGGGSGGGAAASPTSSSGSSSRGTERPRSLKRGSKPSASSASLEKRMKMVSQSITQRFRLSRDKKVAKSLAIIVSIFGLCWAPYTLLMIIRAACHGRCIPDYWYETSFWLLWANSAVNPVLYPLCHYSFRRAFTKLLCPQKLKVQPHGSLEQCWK

With `N#CN=C(Nc1ccc(-c2c[nH]cn2)cc1)NC1CCCCC1` [Compound 50], on histamine H3 receptor, the “binding to the histamine H3 -receptor (in words)” value (“binding to the histamine H3” for short) is given as “ineffective at binding to the H3 -receptor”.

As to arg-Vasopressin: Reference Compound, the Ki (as a rule, the equilibrium dissociation constant of an inhibitor or competing ligand from its target) on Arg-Vasopressin V1 is 4.9 nM.

Consider `O=C(CC1CCCCC1)N1CCC(c2c[nH]cn2)CC1` [Compound 3], for which the IC50 (usually the concentration at which inhibition is half-maximal) on histamine H3 receptor came to 19 ± 12 nM.

As for `O=C(CCc1ccccc1)N1CCC(c2c[nH]cn2)CC1` [Compound 7], the IC50 on histamine H3 receptor (setting [2]) was 34.1 ± 3.6 nM.

Turning to EGF: Reference Compound, on EGF, the Ki was 0.24 nM.

For `O=C(CCC(c1ccccc1)c1ccccc1)N1CCC(c2c[nH]cn2)CC1` [Compound 53], the IC50 on histamine H3 receptor (setting [2]) is 124 nM.

Consider ANP: Reference Compound, for which the Ki on ANF (rat) is 0.15 nM.

Regarding `O=C(CC=C(c1ccccc1)c1ccccc1)N1CCC(c2c[nH]cn2)CC1` [Compound 54], the IC50 on histamine H3 receptor (setting [2]) was 1000 nM.

With Substance P: Reference Compound, the Ki on Substance P was 0.08 nM.

As to `O=C(C(c1ccccc1)C1CCCCC1)N1CCC(c2c[nH]cn2)CC1` (centres unmarked) [Compound 11], the IC50 on histamine H3 receptor (setting [3]) came out at 260 ± 38 nM.

Neuropeptide Y: Reference Compound: the Ki on NPY was 0.5 nM.

Consider `CCNC(=O)[C@H]1O[C@@H](n2cnc3c(N)ncnc32)[C@H](O)[C@@H]1O` [NECA], for which, at Adenosine, the Ki was 120 nM.

For `O=C1CN=C(c2ccccc2Cl)c2cc([N+](=O)[O-])ccc2N1` [Clonazepam], the Ki at Benzodiazephine was 3.4 nM.

Consider `O=C(CCCc1ccccc1)N1CCC(c2c[nH]cn2)CC1` [Compound 5], for which, on histamine H3 receptor (setting [2]), the IC50 is 262 ± 9 nM.

For the molecule `N#CN=C(Oc1ccccc1)N1CCC(c2c[nH]cn2)CC1` [Compound 47], the IC50 on histamine H3 receptor (setting [2]) was determined as 231 nM. For the same molecule, the “binding to the histamine H3” value on histamine H3 receptor is “ineffective at binding to the H3 -receptor”.

Turning to `CNCCc1c[nH]cn1` [[^3 H]-N-alpha-methylhistamine, reference compound], on histamine H3 receptor, the dissociation constant Kd (in general, the concentration at which binding is half-saturated) was 0.19 nM. That is a sub-nanomolar value.

With `O=C(c1ccccc1)N1CCC(c2c[nH]cn2)CC1` [Compound 13], the IC50 on histamine H3 receptor (setting [2]) came to 151 ± 44 nM.

For Somatostatin: Reference Compound, the Ki at Somatostatin is 0.03 nM.

Regarding Neurokinin A: Reference Compound, the Ki at Substance K was 2.75 nM.

Consider “Apamin: Reference Compound (CNCKAPETALCARRCQQH; ends and bridges not checked; cysteine pairing not given here; UniProt P01500 28-45, looked up)”, for which, on Potassium, the Ki was 0.05 nM.

In the case of `O=C(/C=C/c1ccccc1)N1CCC(c2c[nH]cn2)CC1` [Compound 10], at histamine H3 receptor (setting [3]), the IC50 was 570 ± 172 nM.

Consider NGF: Reference Compound, for which the Ki on NGF was 0.8 nM.

`O=C(CCC1CCCCC1)N1CCC(c2c[nH]cn2)CC1` [Compound 6]: the IC50 on histamine H3 receptor (setting [2]) came to 34 ± 1.4 nM.

As for Neurotensin, the Ki on Neurotensin is 1.23 nM.

Regarding `c1ccc(C2(N3CCCCC3)CCCCC2)cc1` [PCP], the Ki on PCP is 62.3 nM.

As for `CNC(=S)NCCCCc1cnc[nH]1` [Burimamide, reference compound], the IC50 at histamine H3 receptor (setting [2]) came out at 156 ± 57 nM.

As for `N[C@@H](Cn1oc(=O)[nH]c1=O)C(=O)O` [Quisqualic Acid], the Ki at Quisqualate is 11.8 nM.

With `N#CN=C(NC1CCCCC1)N1CCC(c2c[nH]cn2)CC1` [Compound 48], the “binding to the histamine H3” value on histamine H3 receptor is “ineffective at binding to the H3 -receptor”.

Turning to `O=C(CC(c1ccccc1)c1ccccc1)N1CCC(c2c[nH]cn2)CC1` [Compound 52], the 50% inhibitory concentration (IC50) on histamine H3 receptor (setting [2]) was 93.1 nM.

Turning to Angiotensin II: Reference Compound, on Angiotensin, the Ki is 0.2 nM.

As to VIP: Reference Compound, the Ki on VIP is 1.53 nM.

In the case of Tyr4-Bombesin, at Bombesin, the Ki is 0.55 nM.

In the case of `COC(=O)C1=C(C)NC(C)=C(C(=O)OC)C1c1ccccc1[N+](=O)[O-]` [Nifedipine], the Ki on Calcium is 1.6 nM.

`C=C[C@@]1(C)CC(=O)[C@]2(O)[C@@]3(C)[C@@H](O)CCC(C)(C)[C@@H]3[C@H](O)[C@H](OC(C)=O)[C@@]2(C)O1` [Forskolin]: the Ki in experiment [1] was 29.4 nM.

Consider `CC(C)(C)OC(=O)N1CCC(c2c[nH]cn2)CC1` [Compound 2], for which the IC50 at histamine H3 receptor worked out at 243.5 ± 1.9 nM.

`O=C(CCCN1CCC2(CC1)C(=O)NCN2c1ccccc1)c1ccc(F)cc1` [Spiperone]: the Ki on Dopamine 2 was 0.08 nM.

As to `O=C(CCCC1CCCCC1)N1CCC(c2c[nH]cn2)CC1` [Compound 12], the IC50 at histamine H3 receptor (setting [2]) was found to be 41.4 ± 9 nM.

`NCCc1c[nH]c2ccc(O)cc12` [Serotonin]: the Ki on Serotonin 2 was 531 nM; on Serotonin 1, 4.6 nM.

On to `C[C@@H](N)Cc1c[nH]cn1` [(R)α-methylhistamine], for which the sleeping result in the experiment on Male albino CF-1 mice (15 to 35 mg/kg, one hour after injection) is “dose-dependent (range of 15 to 35 mg/kg) increase in sleeping one hour after injection”; in the experiment on Male albino CF-1 mice (30 minutes after injection), “evident at 30 minutes after injection”.

Turning to `CN[C@H](CC(=O)O)C(=O)O` [NMDA], at NMDA, the Ki is 359 nM.

`C[C@]12N[C@H](Cc3ccccc31)c1ccccc12` [MK801]: the Ki on MK-801 is 4.3 nM.
